The record followed here is patent publication US5459147A, “Substituted benzimidazolyl derivatives and pharmaceutical compositions containing these compounds” (Dr. Karl Thomae GmbH, priority 1992, dated 1995).

In this experiment the target is T1, Angiotensin II-receptor (Rattus norvegicus, UniProt P25095).
T1 construct: The tissue (rats lung) is homogenised in Tris-buffer; from tissue; host or cells: rat lung homogenate (washed 20,000×g pellet)
T1 sequence (P25095 1-359): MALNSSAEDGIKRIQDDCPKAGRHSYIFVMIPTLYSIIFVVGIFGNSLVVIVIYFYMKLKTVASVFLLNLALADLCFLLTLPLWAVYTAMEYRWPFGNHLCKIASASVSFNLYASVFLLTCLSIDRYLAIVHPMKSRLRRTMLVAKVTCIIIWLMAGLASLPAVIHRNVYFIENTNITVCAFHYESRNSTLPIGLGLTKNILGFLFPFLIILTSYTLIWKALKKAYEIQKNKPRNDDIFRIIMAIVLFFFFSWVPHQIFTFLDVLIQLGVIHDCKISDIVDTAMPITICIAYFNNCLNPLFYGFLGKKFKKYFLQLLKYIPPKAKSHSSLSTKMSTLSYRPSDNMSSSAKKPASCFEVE
As to the kind of experiment: Angiotensin II-receptor bonding. It is filed as binding. The conditions noted are these: rats lung homogenate; 50 pM [125I]-angiotensin II; 60 minutes at 37° C., pH 7.40. The method, then: Description of method: Angiotensin II-receptor bonding
The tissue (rats lung) is homogenised in Tris-buffer (50 mMol Tris, 150 mMol NaCl, 5 mMol EDTA, pH 7.40) and centrifuged twice for 20 minutes at 20,000×g. The finished pellets are resuspended in incubating buffer (50 mMol Tris, 5 mMol MgCl2, 0.2% BSA, pH 7.40) 1:75, based on the moist weight of the tissue. Each 0.1 ml of homogenate is incubated for 60 minutes at 37° C. with 50 pM [^125 I]-angiotensin II (NEN, Dreieich, FRG) with increasing concentrations of the test substance in a total volume of 0.25 ml. Incubation is ended by rapid filtration through glass fiber filter mats. The filters are each washed with 4 ml of ice cold buffer (25 mMol Tris, 2.5 mMol MgCl2, 0.1% BSA, pH 7.40). The bound radioactivity is measured using a gamma-counter. The corresponding IC50 value is obtained from the dose-activity curve.
As usually defined, the IC50 is the point on the concentration scale where inhibition reaches its midpoint. Read a high IC50 as a need for much substance. In turn, `CCCc1nc2c(C)cc(-c3nc4ccccc4n3C)cc2n1Cc1ccc2nc(-c3ccccc3)n(CC(=O)O)c2c1` [Substance B, 1-hydroxycarbonylmethyl-2-phenyl-6-[(2-n-propyl-4-methyl-6-(1-methyl-benzimidazol-2-yl)-benzimidazol-1-yl)-methyl]-benzimidazole] showed an IC50 of 0.023 µM. That is a double-digit nanomolar value. To `CCc1nc2c(C)cc(C)nc2n1Cc1ccc2c(c1)nc(-c1ccccc1)n2CC(=O)O` [Substance A, 1-hydroxycarbonylmethyl-2-phenyl-5-[(2-ethyl-4,6-dimethyl-imidazo[4,5-b]pyridin-1-yl)-methyl]-benzimidazole-trihydrate] belongs 0.12 µM; to `CCCc1nc2c(C)cc(-c3nc4ccccc4n3C)cc2n1Cc1ccc2c(c1)nc(-c1ccccc1)n2Cc1nnn[nH]1` [Substance C, 1-[(1H-tetrazol-5-yl)-methyl]-2-phenyl-5-[(2-n-propyl-4-methyl-6-(1-methyl-benzimidazol-2-yl)-benzimidazol-1-yl)-methyl]-benzimidazole], 0.0023 µM.
